Key:
SARM1 = target: T1, SARM1 (Homo sapiens, UniProt Q6SZW1); experiment: In vitro biochemical assay for inhibiting SARM1 enzymatic activity (PC6 fluorescence, NAD substrate, NMN activator); details: 0.05 µg/mL SARM1, 50 µM NAD, 50 µM PC6, 50 µM NMN, 10 min pre-incubation, 30 min at room temperature
T1 construct: the inventor produces full-length SARM1 for NADase activity assays and for screening; His (C); made in house; host or cells: HEK293 cells (transient transfection; digitonin lysate supernatant, not purified further)
T1 sequence (Q6SZW1 28-724): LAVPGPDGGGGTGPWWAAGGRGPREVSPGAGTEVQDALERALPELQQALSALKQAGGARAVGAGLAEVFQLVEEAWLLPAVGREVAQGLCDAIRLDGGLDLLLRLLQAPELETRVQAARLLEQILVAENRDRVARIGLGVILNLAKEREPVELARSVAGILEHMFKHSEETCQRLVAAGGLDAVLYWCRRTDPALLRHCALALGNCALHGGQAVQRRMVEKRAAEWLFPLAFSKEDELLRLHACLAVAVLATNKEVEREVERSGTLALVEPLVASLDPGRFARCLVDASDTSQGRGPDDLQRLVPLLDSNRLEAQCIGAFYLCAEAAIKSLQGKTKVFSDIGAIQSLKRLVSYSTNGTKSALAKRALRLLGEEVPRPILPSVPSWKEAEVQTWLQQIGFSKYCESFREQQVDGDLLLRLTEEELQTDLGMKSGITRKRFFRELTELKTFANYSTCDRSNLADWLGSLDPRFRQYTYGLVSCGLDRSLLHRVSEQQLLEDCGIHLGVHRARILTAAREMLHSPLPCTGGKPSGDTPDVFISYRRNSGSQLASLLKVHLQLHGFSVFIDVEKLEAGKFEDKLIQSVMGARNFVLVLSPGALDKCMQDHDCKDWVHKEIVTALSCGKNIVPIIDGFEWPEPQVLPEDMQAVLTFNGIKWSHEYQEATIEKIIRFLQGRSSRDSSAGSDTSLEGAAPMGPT
Procedure: Compounds to be tested were stocked at 200 µM or 10 mM (in DMSO), and further diluted to the desired compound concentration for the in vitro SARM1 enzyme assay and inhibitor screening.
The gene sequence encoding SARM1 protein was amplified by PCR and the PCR amplification product was constructed into the pcDNA3.1-HIS-C plasmid. This construction was completed by YouBio Biological Technology (Hunan, China).
HEK293 cells were cultured in DMEM in a 10 cm dish. The next day, cells were transfected with 15 µg of the pcDNA3.1-SARM1-HIS-C expression plasmid.
Cells were harvested 48 hours after the transfection. The SARM1 protein expressed in cells was obtained through cell lysis by digitonin, which was used for in vitro activity assay. The specific process was as follows:
Cells were digested and detached from the dish using trypsin-EDTA, centrifuged at 1000 rpm for 5 minutes, washed once with PBS, then resuspended in PBS containing 100 µM digitonin at 0.6 mL PBS for the cells in 10 cm dish and lysed for 5 min. The cells were added with trypan blue and observed under a microscope. More than 90% of the cells were confirmed to be lysed. The cells were centrifuged at 5000 rpm for 10 min, and the supernatant containing SARM1 protein was collected.
The compound was added into a solution of 50 mM Tris-HCl (pH 7.5) containing 0.05 µg/mL SARM1 to achieve a concentration of 200 µM, and then serially diluted 6 times, where each dilution was carried out by taking half of the previous solution and adding an equal volume of 50 mM Tris-HCl (pH 7.5) containing 0.05 µg/mL SARM1, yielding a set of final concentrations of the compound of either 200, 100, 50, 25, 12.5, 6.25 and 3.125 µM, or 200, 50, 12.5, 3.125, 0.78, 0.195 and 0.049 µM. No inhibitor was added in the control group. All mixtures were incubated at room temperature for 10 min.
Subsequently, 50 µM NAD, 50 µM PC6 as substrate and 50 µM NMN as activator were added to the SARM1 protein incubated with the inhibitor and reacted for 30 min at room temperature. Wherein, the aforementioned concentrations of each component represent their respective final concentrations in the reaction system
During the reaction, the fluorescence spectrum dynamics of PC6 was detected by a microplate reader, with excitation and emission wavelengths set at 390 nm and 520 nm, respectively. The activity of the protein was expressed as the reaction rate and half maximal inhibitory concentration was calculated. The higher the reaction rate, the stronger the protein activity, and the lower the inhibitory efficiency of the compound.
Dose-response curves for inhibition of SARM1 enzymatic activity for NAD by the compounds were plotted using the above method.

[1] = test system: axons of dorsal root ganglia explants; experiment: Wallerian degeneration assay of axon in mouse DRG explant culture; type: cell-based, C57BL/6 mice; details: 10 µM compound, 2 h pretreatment, 24 h post axonal transection
Procedure: Dorsal root ganglia were dissected from two-month-old male C57BL/6 mice and placed into a 35-mm culture dish containing ice-cold HBSS buffer. Extra tissue surrounding each dorsal ganglion was removed using a scalpel, and the ganglia were cut into 2-3 explant pieces. These explants were seeded into wells of a 96-well plate pre-coated with 100 ng/mL Matrigel (Corning), added with 100 µL of DRG medium (Neurobasal medium (Gibco) containing 2% B-27 (Gibco), 1% GlutaMAX (Gibco) and 10 ng/mL NGF (MCE)), and cultured in a 37°C incubator for one week. The medium was half- replaced on the fourth day and the experiments were counted on the eighth day.
Refer to methods reported in literatures in the related art (Gerdts J, Sasaki Y, Vohra B, Marasa J, Milbrandt J. Image-based screening identifies novel roles for IkappaB kinase and glycogen synthase kinase 3 in axonal degeneration. J Biol Chem. 2011 Aug 12;286(32):28011-8) for the definition and measurement principle of the degeneration index of axon. In the present disclosure, the measurement method is detaild below.
0.1 µL of 10 mM compound to be tested was added to 100 µL of DRG medium to prepare a new medium containing 10 µM compound to be tested. The medium in the 96-well plate was removed and replaced with the new medium containing the compound to be tested. Explant pieces of dorsal ganglia were incubated with compounds in a 37°C incubator for 2 h of pre-protection. Following this 2-hour pretreatment, axons were transcted near the explants tissue piece using a glass microelectrode. At 0 h and 24 h post axonal transection, brightfield images of axons in the same region were captured using a microscope (Olympus) with 20× objective. Axonal integrity was assessed using an in-house developed script. The results were categorized based on the degree of protection into: (A) >50% and (B) 20-50%.

IC50 (SARM1) [µM] | Compound | Degree of protection against axonal Wallerian Degeneration [1]
< 1 | O=C1C(Cc2ccc(F)cc2)CCN1c1ccc(-c2ccncc2)nn1 (stereo not shown) [Compound 55, 3-(4-fluorobenzyl)-1-(6-(pyridin-4-yl)pyridazin-3-yl)pyrrolidin-2-one] | B ((B) 20-50%)
< 1 | O=C1C(Cc2cc(F)c(F)c(F)c2)CCN1c1ccc(-c2ccncc2)nn1 (stereo not shown) [Compound 71] | A ((A) >50%)
< 1 | O=C1C(Cc2ccc(Cl)nc2)CCN1c1ccc(-c2ccncc2)nn1 (stereo not shown) [Compound 64] | A ((A) >50%)
1 to 10 | O=C1C(Cc2ccc(F)cc2F)CCN1c1ccc(-c2ccncc2)cc1 (stereo not shown) [Compound 41, 3-(2,4-difluorobenzyl)-1-(4-(pyridin-4-yl)phenyl)pyrrolidin-2-one] | B ((B) 20-50%)
< 1 | O=C1C(Cc2ccc(Cl)cc2)CCN1c1ccc(-c2ccncc2F)nn1 (stereo not shown) [Compound 75, 3-(4-chlorobenzyl)-1-(6-(3-fluoropyridin-4-yl)pyridazin-3-yl)pyrrolidin-2-one] | A ((A) >50%)
< 1 | O=C1C(Cc2ccc(Cl)cc2)CCN1c1ccc(-c2ccncc2Cl)nn1 (stereo not shown) [Compound 76, 3-(4-chlorobenzyl)-1-(6-(3-chloropyridin-4-yl)pyridazin-3-yl)pyrrolidin-2-one] | B ((B) 20-50%)
< 1 | O=C1C(Cc2ccc(Cl)c(F)c2)CCN1c1ccc(-c2ccncc2)nn1 (stereo not shown) [Compound 62] | B ((B) 20-50%)
1 to 10 | O=C1C(Cc2cc(F)cc(F)c2)CCN1c1ccc(-c2ccncc2)cc1 (stereo not shown) [Compound 33, 3-(3,5-difluorobenzyl)-1-(4-(pyridin-4-yl)phenyl)pyrrolidin-2-one] | A ((A) >50%)
1 to 10 | O=C1C(Cc2ccc(F)cc2)CCN1c1ccc(-c2ccncc2)cc1 (stereo not shown) [Compound 15, 3-(4-fluorobenzyl)-1-(4-(pyridin-4-yl)phenyl)pyrrolidin-2-one] | B ((B) 20-50%)
1 to 10 | COC(=O)c1ccc(CC2CCN(c3ccc(-c4ccncc4)cc3)C2=O)cc1 (stereo not shown) [Compound 86, methyl 4-((2-oxo-1-(4-(pyridin-4-yl)phenyl)pyrrolidin-3-yl)methyl)benzoate] | –
10 to 30 | O=C1C(Cc2ccc(Br)cc2)CCN1c1ccc(-c2ccncc2)cc1 (stereo not shown) [Compound 31, 3-(4-bromobenzyl)-1-(4-(pyridin-4-yl)phenyl)pyrrolidin-2-one] | –
10 to 30 | O=C1C(Cc2ccc([N+](=O)[O-])cc2)CCN1c1ccc(-c2ccncc2)cc1 (stereo not shown) [Compound 32, 3-(4-nitrobenzyl)-1-(4-(pyridin-4-yl)phenyl)pyrrolidin-2-one] | –
10 to 30 | N#Cc1cnccc1-c1ccc(N2CCC(Cc3ccc(Cl)cc3)C2=O)cc1 (stereo not shown) [Compound 36, 3-(4-chlorobenzyl)-1-(4-(3-cyanopyridin-4-yl)phenyl)pyrrolidin-2-one] | –
1 to 10 | O=C1CC(Cc2ccc(Cl)cc2)C(=O)N1c1ccc(-c2ccncc2)cc1 (stereo not shown) [Compound 43, 3-(4-chlorobenzyl)-1-(4-(pyridin-4-yl)phenyl)pyrrolidin-2,5-one] | –
10 to 30 | O=C1C(Cc2ccc(Cl)cc2)CCN1c1cnc(-c2ccncc2)nc1 (stereo not shown) [Compound 23, 3-(4-chlorobenzyl)-1-(2-(pyridin-4-yl)pyrimidin-5-yl)pyrrolidin-2-one] | –
< 1 | O=C1N(Cc2ccc(Cl)cc2)CCN1c1ccc(-c2ccncc2)cc1 [Compound 13, 1-(4-chlorobenzyl)-3-(4-(pyridin-4-yl)phenyl)imidazolin-2-one] | –
10 to 30 | O=C1C(CCc2ccc(Cl)cc2)CCN1c1ccc(-c2ccncc2)cc1 (stereo not shown) [Compound 27, 3-(4-chlorophenethyl)-1-(4-(pyridin-4-yl)phenyl)pyrrolidin-2-one] | –
< 1 | O=C1C(Cc2ccc(Cl)cc2)CCN1c1ccc(-c2ccncc2F)cc1 (stereo not shown) [Compound 35, 3-(4-chlorobenzyl)-1-(4-(3-fluoropyridin-4-yl)phenyl)pyrrolidin-2-one] | –
10 to 30 | O=C1C(Cc2ccc(Cl)cn2)CCN1c1ccc(-c2ccncc2)cc1 (stereo not shown) [Compound 28] | –
< 1 | C=C(Cc1ccc(Cl)cc1)C(=O)Nc1ccc(-c2ccncc2)cc1 [Compound 5] | –
< 1 | S=C1C(Cc2ccc(Cl)cc2)CCN1c1ccc(-c2ccncc2)cc1 (stereo not shown) [Compound 12] | –
1 to 10 | O=C1C(Cc2ccc(Cl)c(F)c2)CCN1c1ccc(-c2ccncc2)cc1 (stereo not shown) [Compound 16, 3-(4-chloro-3-fluorobenzyl)-1-(4-(pyridin-4-yl)phenyl)pyrrolidin-2-one] | –
10 to 30 | CC(c1ccc(Cl)cc1)C1CCN(c2ccc(-c3ccncc3)cc2)C1=O (stereo not shown) [Compound 4, 3-(1-(4-chlorophenyl)ethyl)-1-(4-(pyridin-4-yl)phenyl)pyrrolidin-2-one] | –
10 to 30 | O=C(O)c1ccc(CC2CCN(c3ccc(-c4ccncc4)cc3)C2=O)cc1 (stereo not shown) [Compound 87, 4-((2-oxo-1-(4-(pyridin-4-yl)phenyl)pyrrolidin-3-yl)methyl)benzoic acid] | –
10 to 30 | O=C1/C(=C/c2ccc(Cl)cc2)CCN1c1ccc(-c2ccncc2)nn1 [Compound 78, (E)-3-(4-chlorobenzylidene)-1-(6-(pyridin-4-yl)pyridazin-3-yl)pyrrolidin-2-one] | –
1 to 10 | O=C1C(Cc2ccc(Cl)cc2)=CCN1c1ccc(-c2ccncc2)cc1 [Compound 22] | –
1 to 10 | 3-(4-chloro-2-fluorobenzyl)-1-(4-(pyridin-4-yl)phenyl)pyrrolidin-2-one [Compound 42] | –
10 to 30 | CN1CCN(Cc2ccc(CC3CCN(c4ccc(-c5ccncc5)cc4)C3=O)cc2)CC1 (stereo not shown) [Compound 88, 3-(4-((4-methylpiperazin-1-yl)methyl)benzyl)-1-(4-(pyridin-4-yl)phenyl)pyrrolidin-2-one] | –
